This note sets out measurements from patent US7094760B2, “Peptides for treatment of inflammation and shock” (Salpep Biotechnology, Inc., priority 1996, dated 2006).

Assay [1] concerns LPS (Salmonella typhosa)-induced hypotension in unoperated rats. Briefly: endotoxin (LPS)-induced hypotension, unoperated rats. The format is in vivo, rat. Here is the method:
The animal model of endotoxic shock used involves intravenous injection of endotoxin (3.5 mg/kg of lipopolysaccharide (LPS) from Salmonella typhosa) into pentobarbital-anaesthetized Sprague-Dawley rats, to produce a fall in mean arterial blood pressure within 3 to 5 minutes. The endotoxin was injected slowly over 1 min. via the jugular vein, and mean arterial blood pressure in mm mercury (MABP) was monitored continuously for 60 min, with the average blood pressure being calculated at 15, 30, 45 and 60 min. Studies were performed on unoperated rats and rats with their submandibular glands removed (sialadenectomized).
The results shown in Table 1 are the averages of three different experiments using the protocol defined above. The data shown represent the average decrease in MABP (dec MABP) and the % Decrease in MABP over the 60 minutes following LPS administration. SGP-S (100μg/kg) and SGP-T (100 μg/kg) were administered 90 min. before LPS. […] Neither SGP-T nor SGP-S, when given prior to the LPS challenge, had appreciable effects on MABP.
Overall, SGP-T reduced by 60% the decrease and the percent decrease in MABP induced by endotoxin, relative to pre-LPS values. SGP-S, on the other hand, had no effect on the shock induced by endotoxin in unoperated rats.
The dose-response relationship of the inhibitory effect of SGP-T and SGP-S on endotoxin-induced hypotension was also examined and the results are shown in FIG. 1.

Assay [2] deals with Sprague-Dawley rats sensitized with Nippostrongylys brasiliensis. Briefly: antigen-induced anaphylactic hypotension, Nippostrongylus brasiliensis-sensitized rats. In kind it is in vivo, rat. As to conditions: given 10 minutes prior to worm antigen (100 worm equivalents). Here is the method:
The effect of SGP-T on antigen-induced anaphylactic hypotension was examined in Sprague-Dawley rats sensitized 5 weeks previously with the nematode parasite Nippostrongylys brasiliensis. Under pentobarbital anesthesia, worm antigen (100 worm equivalents) was injected and arterial blood pressure was followed for 1 hour.

For assay [3], the system named is jejunal segments from ovalbumin-sensitized rats. Briefly: antigen-induced jejunal segment contraction, URE/OA ratio, Example 7. Set-up: species or system rat. Here is the method:
Animals and Tissue Preparation: Male Sprague-Dawley rats were sensitized to egg albumin (ovalbumin, OA) with 50 ng of Pertussis bordetella toxin as an adjuvant. Four to six weeks after sensitization, the rats were anaethetised with sodium pentobarbital and the jejunum was removed. Two cm sections of the jejunum were mounted in tissue baths under 0.75 g of isometric tension, and the tissues were allowed to equilibrate for 20 min prior to beginning the experiment.
10 μg of SGP-T or one of its analogues or fragments was added to a bath, while control tissues received the saline vehicle. Following a 10 min incubation, 100 ng of OA prepared in 0.9% saline was added. After the tissue had reached a maximal contractile response, the tissues were washed extensively to remove OA and peptide and, after the tissues had established baseline tension, 20 μg of urecholine (URE; a cholinergic-muscarinic receptor agonist) was added to determine the maximal contractile response of the tissue. The tissues were then removed from the bath, cleared of all underlying mucosa and the weight of the remaining muscle was determined.
Data Analysis: The tension (measured in grams) per gram tissue weight generated by each tissue in response to OA and URE was calculated. To normalize for differences in the ability of each tissue segment to contract in response to the muscle stimulants, the contractile response to […]. Thus, a measure of the antigen-induced contraction was expressed as the URE/OA ratio.
The data was analyzed using the one-way analysis of variance (ANOVA) and differences between groups was determined using the Student t-test for unpaired samples. The results are shown in FIGS. 7 and 8 and Tables 3 and 4.

For assay [4], the system named is neutrophil influx into carrageenin-soaked sponge in rats. Briefly: neutrophil migration into carrageenin-soaked sponge. The format is in vivo, rat. Here is the method:
The subcutaneous implantation of a carrageenin-soaked sponge in rats is a model used to evaluate agents that modulate neutrophil chemotaxis, as carrageein is a potent chemotactic agent and the sponge serves as a collecting reservoir.
(§1) Under halothane anaesthesia the sponge was removed from its subcutaneous site and the fluid was squeezed from it into a test tube. Following centrifugation at 2,000 g for 10 min, the exudate was decanted and the remaining cells were suspended in 4 ml of 0.9% saline, and their number determined using a Coulter Counter. One ml of the remaining cell suspension was extracted for use in the superoxide assay.
(§2) Intravenous injections of SGP-T inhibited neutrophil influx into a carrageenin-soaked sponge in a dose-dependent manner (FIG. 4). When the ability of neutrophils obtained from the carrageenin-soaked sponges to generate superoxide anion was evaluated, those obtained from saline-treated rats were totally refractory to f MLP and phorbol myristate acetate (PMA).

Assay [5] concerns neutrophils from carrageenin-soaked sponges. Briefly: superoxide production by neutrophils from carrageenin-soaked sponges of treated rats. The format is in vivo, rat. To be noted: intravenous SGP-T 4 hr. before implantation of the sponge. As for the experimental part:
as §1
Neutrophils (10^6) were suspended in PBS buffer of the following composition: NaCl 137 mM, KCl 2.7 mM, Na2HPO4, 8.1 mM, KH2PO4 1.47 mM, CaCl2 1.19 mM, MgCl2 0.54 mM, glucose 7.5 mM and cytochrome C 1.5 mM (Sigma Chemical Co. St. Louis, […].) incubated at 37 C. Each sample was read along with a reference sample containing 1440 units of superoxide dismutase (Sigma) in a spectrophotometer (Hitachi, U200 spectrophotometer). The rate of superoxide production in response to 10^−7M phorbol myristate acetate (PMA) or 10^−5 M N-formyl-methionyl-leucyl-phenylalanine (fMLP) was then inferred from the slope. […]
as §2

In assay [6] the test system is endotoxin-induced fever in rats. Briefly: endotoxin-induced fever, Example 12. To be noted: late phase (180–420 minutes); injected immediately before ip 150 μg/kg LPS. The format is in vivo, rat. Here is the method: Rats were operated on to remove salivary glands (or controls were sham-operated) one week before challenge with endotoxin. At the time of operation, a temperature sensitive radio transmitter was inserted in the peritoneal cavity. One week after operation, baseline temperatures were recorded by telemetry and SGP-T or saline was injected immediately before intra-peritoneal injection of 150 μg/kg LPS. Temperature was followed for 12 hours. SGP-T suppressed a late phase (180–420 minutes) of endotoxin-induced fever.

The mark [7] stands for this setting: peptide 100 μg/kg 90 min before LPS 3.5 mg/kg iv.

In the case of “NH2-Thr-Asp-Ile-Phe-Glu-Gly-Gly-COOH (H-TDIFEGG-OH) [SGP-T, submandibular gland peptide T, TDIFEGG]”, in assay [1], the “effect on drop in MABP / shock induced by endotoxin” value is listed as “reduced the drop in MABP” and the “optimal dose for reducing LPS-induced hypotension” value was “higher than in operated animals”. For the same substance, in assay [1] (setting [7]), the “% Dec = percent decrease in MABP relative to MABPbef” value is reported as −11.6%, the “MABPaft = average MABP for 60 mins after LPS injection” value is listed as 99.6 ± 3.8 mm Hg and the “dec MABP = decrease in MABP after LPS relative to MABPbef” value is listed as −13.6 ± 2.9 mm Hg. In addition, the “reduction of the decrease and the percent decrease in MABP induced by endotoxin” value in assay [1] (relative to pre-LPS values) is listed as 60%. In assay [2], the “protection against anaphylactic hypotension” value is given as “dose-dependently protected”. Moreover, the “reduction of the anaphylactic reaction” value in assay [3] (10 μg of peptide) is on record as “more than 50%”. In addition, the URE/OA in assay [3] (Table 4, 10 μg peptide, 100 ng OA, 20 μg urecholine, saline 5.7 ± 1.0) is 13.9 ± 5.6. In assay [4] (intravenous injections), the “neutrophil influx into a carrageenin-soaked sponge” value is on record as “inhibited”. Moreover, the “inhibition of neutrophil migration” value in assay [4] (rat, in vivo) is given as “approximately 50%”. In assay [5], the “superoxide generation in response to fMLP and PMA by sponge neutrophils” value was “able to generate substantial amounts of superoxide”. For the same substance, the endotoxin-induced fever result in assay [6] was “suppressed”.
